# Source: ChEMBL document CHEMBL3797071, “Repurposing strategies for tropical disease drug discovery” (Bioorg Med Chem Lett, 2016)
# Tests used:
# [1] = Inhibition of Trypanosoma brucei LeuRS assessed as formation of stable tRNA(Leu)-compound adduct in editing site of enzyme
# Trypanosoma brucei = experiment: Antiparasitic activity against Trypanosoma brucei […]; format: functional, organism-based
# L929 = experiment: Cytotoxicity against mouse L929 cells; format: cell-based
# Leishmania chagasi [2] = experiment: Antiparasitic activity against amastigote stage of Leishmania chagasi MHOM/BR/1972/LD infected in golden hamster assessed as reduction in parasite load at 20 mg/kg, ip administered for 15 days measured after 4 weeks by limiting dillution method; format: functional; design: scale not given: the % may be the effect or the level left
# Leishmania braziliensis = experiment: Antiparasitic activity against promastigote stage of Leishmania braziliensis MHOM/BR/2001/BA788 infected in BALB/c mouse assessed as reduction in parasite load at 20 mg/kg, ip administered for 15 days measured after 6 weeks by limiting dillution method; format: functional; design: scale not given: the % may be the effect or the level left
# Leishmania chagasi [3] = experiment: Antiparasitic activity against amastigote stage of Leishmania chagasi MHOM/BR/1972/LD infected in golden hamster assessed as golden hamster survival rate at 20 mg/kg, ip after 18 weeks by limiting dillution method; format: functional
# [4] = Selectivity ratio of IC50 for Onchocerca ochengi to IC50 for microfilariae of Loa loa; format: functional
# Brugia pahangi [5] = experiment: Antifilarial activity against Brugia pahangi infected in gerbils assessed as reduction in worm burden at 5 mg/kg, bid in weekdays for 28 days; format: functional, organism-based; design: scale not given: the % may be the effect or the level left
# Brugia pahangi [6] = experiment: Antifilarial activity against Brugia pahangi infected in gerbils assessed as reduction in worm burden at 5 mg/kg, sid in weekends for 28 days; format: functional, organism-based; design: scale not given: the % may be the effect or the level left
Molecule,IC50 [1],EC50 (Trypanosoma brucei),EC50 (L929),other results
CCOC(=O)COc1ccc2c(c1)B(O)OC2,3.5 µM,0.72 µM,> 40 µM,
CC(=O)C(C)(C)Oc1ccc2c(c1)B(O)OC2,5 µM,0.37 µM,> 40 µM,
CC/C(=C(\c1ccccc1)c1ccc(OCCN(C)C)cc1)c1ccccc1 [TAMOXIFEN],,,,Activity (Leishmania chagasi [2]): 95%; Activity (Leishmania braziliensis): 95%; Activity (Leishmania chagasi [3]): 100%
OB1OCc2cc(F)ccc21 [TAVABOROLE],22.1 µM,,,
AURANOFIN,,,,Ratio IC50 [4]: 43; Activity (Brugia pahangi [5]): 58%; Activity (Brugia pahangi [6]): 91%
